In PubChem BioAssay AID248 (DTP/NCI, 2004):
Where “and” joins values, the source holds several entries; their conditions need not be identical. Identical values can stand only once. Inconclusive results and toxic doses are left out. Cut-off read from the data, not from the text of the source: active = T/C of 150% or more; inactive = T/C below 125%.

Tested on: L1210 leukemia ip in BDF1 mice, survival T/C
Test: NCI In Vivo Anticancer Drug Screen. Data for tumor model L1210 Leukemia (intraperitoneal) in B6D2F1 (BDF1) mice
Conditions: endpoint: mean survival time, higher = longer survival
Outline: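 Read-out is survival time, reported as the treated-group measurement over the vehicle-control measurement.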

[1] = dose: 100.0 mg/kg/injection, schedule: Q01DX009 (ip), vehicle: saline
[2] = dose: 100.0 mg/kg/injection, schedule: Q04DX003 (ip), vehicle: saline
[3] = dose: 200.0 mg/kg/injection, schedule: Q04DX003 (ip), vehicle: saline
[4] = dose: 100.0 mg/kg/injection, schedule: Q04DX002 (ip), vehicle: Klucel (hydroxypropylcellulose) (HPC)
[5] = dose: 100.0 mg/kg/injection, schedule: Q01DX001 (ip), vehicle: Klucel (hydroxypropylcellulose) (HPC)
[6] = dose: 200.0 mg/kg/injection, schedule: Q01DX001 (ip), vehicle: Klucel (hydroxypropylcellulose) (HPC)
[7] = dose: 400.0 mg/kg/injection, schedule: Q01DX001 (ip), vehicle: Klucel (hydroxypropylcellulose) (HPC)
[8] = dose: 100.0 mg/kg/injection, schedule: Q04DX003 (ip), vehicle: Klucel (hydroxypropylcellulose) (HPC)
[9] = dose: 200.0 mg/kg/injection, schedule: Q04DX003 (ip), vehicle: Klucel (hydroxypropylcellulose) (HPC)
[10] = dose: 400.0 mg/kg/injection, schedule: Q04DX003 (ip), vehicle: Klucel (hydroxypropylcellulose) (HPC)
[11] = dose: 50.0 mg/kg/injection, schedule: Q01DX001 (ip), vehicle: saline
[12] = dose: 100.0 mg/kg/injection, schedule: Q01DX001 (ip), vehicle: saline
[13] = dose: 100.0 mg/kg/injection, schedule: Q01DX009 (ip), vehicle: saline with Tween-80
[14] = dose: 100.0 mg/kg/injection, schedule: Q01DX009 (ip), vehicle: Klucel (hydroxypropylcellulose) (HPC)
[15] = dose: 200.0 mg/kg/injection, schedule: Q01DX009 (ip), vehicle: Klucel (hydroxypropylcellulose) (HPC)
[16] = dose: 400.0 mg/kg/injection, schedule: Q01DX009 (ip), vehicle: Klucel (hydroxypropylcellulose) (HPC)
[17] = dose: 100.0 mg/kg/injection, schedule: Q04DX003 (ip), vehicle: saline with Tween-80
[18] = dose: 200.0 mg/kg/injection, schedule: Q04DX003 (ip), vehicle: saline with Tween-80
[19] = dose: 400.0 mg/kg/injection, schedule: Q04DX003 (ip), vehicle: saline with Tween-80
[20] = dose: 50.0 mg/kg/injection, schedule: Q01DX009 (ip), vehicle: Klucel (hydroxypropylcellulose) (HPC)

Measured: T/C

COC1c2cnc(C)n2C=CN1C(C)=O (centres undefined)
inactive: dose: 25.0 mg/kg/injection, schedule: Q01DX009 (ip), vehicle: saline 102 % of control | dose: 50.0 mg/kg/injection, schedule: Q01DX009 (ip), vehicle: saline 100 % of control | [1] 91 % of control | [2] 108 % of control | [3] 98 % of control

CCN(CC)Cc1ccccc1COC(=O)c1ccc(C)cc1
inactive: dose: 25.0 mg/kg/injection, schedule: Q04DX002 (ip), vehicle: Klucel (hydroxypropylcellulose) (HPC) 97 % of control | dose: 50.0 mg/kg/injection, schedule: Q04DX002 (ip), vehicle: Klucel (hydroxypropylcellulose) (HPC) 97 % of control | [4] 94 % of control

O=P1(c2ccccc2)CCc2[nH]c3ccc(F)cc3c2C1 (centres undefined)
inactive: [5] 97 % of control | [6] 100 % of control | [7] 98 % of control

COC(=O)c1ccccc1NC1=NCCO1
inactive: dose: 50.0 mg/kg/injection, schedule: Q04DX002 (ip), vehicle: saline with Tween-80 98 % of control | dose: 100.0 mg/kg/injection, schedule: Q04DX002 (ip), vehicle: saline with Tween-80 104 % of control | dose: 200.0 mg/kg/injection, schedule: Q04DX002 (ip), vehicle: saline with Tween-80 91 % of control | dose: 400.0 mg/kg/injection, schedule: Q04DX002 (ip), vehicle: saline with Tween-80 88 % of control

Cc1ccc(S(=O)(=O)OC2C(C)(C)C(=O)C2(C)C)cc1
inactive: dose: 100.0 mg/kg/injection, schedule: Q01DX001 (ip), vehicle: carboxymethylcellulose (CMC) 97 % of control | dose: 200.0 mg/kg/injection, schedule: Q01DX001 (ip), vehicle: carboxymethylcellulose (CMC) 92 % of control | dose: 400.0 mg/kg/injection, schedule: Q01DX001 (ip), vehicle: carboxymethylcellulose (CMC) 92 % of control

CCOC(=O)c1cnc(N)s1
inactive: [5] 105 % of control | [6] 98 % of control | [7] 102 % of control

Cc1ccc(S(=O)(=O)N(CCO)CCO)cc1
inactive: [8] 101 % of control | [9] 100 % of control | [10] 92 % of control

C[N+](C)(C)C(=O)c1ccccc1
inactive: [11] 104 % of control | [12] 101 % of control

CN(C)CCOC(=O)c1ccc(N)cc1
inactive: [2] 96 % of control | [3] 98 % of control

COc1ccc2nc3cc(Cl)ccc3c(NCCC[N+](C)(C)CCCCCCCCCC[N+](C)(C)CCCNc3c4ccc(Cl)cc4nc4ccc(OC)cc34)c2c1
inactive: dose: 0.78 mg/kg/injection, schedule: Q01DX009 (ip), vehicle: saline with Tween-80 102 % of control | dose: 1.56 mg/kg/injection, schedule: Q01DX009 (ip), vehicle: saline with Tween-80 94 % of control and 100 % of control | dose: 3.13 mg/kg/injection, schedule: Q01DX009 (ip), vehicle: saline with Tween-80 100 % of control and 101 % of control | dose: 6.25 mg/kg/injection, schedule: Q01DX009 (ip), vehicle: saline with Tween-80 106 % of control

CC(C)CC1NC(=O)C(Cc2ccc(OCc3ccccc3)cc2)NC1=O (centres undefined)
inactive: [13] 102 % of control | [2] 104 % of control | dose: 200.0 mg/kg/injection, schedule: Q01DX009 (ip), vehicle: saline with Tween-80 96 % of control | [3] 88 % of control | dose: 400.0 mg/kg/injection, schedule: Q01DX009 (ip), vehicle: saline with Tween-80 100 % of control | dose: 400.0 mg/kg/injection, schedule: Q04DX003 (ip), vehicle: saline 94 % of control

O=C(O)c1ccc2c(c1)Cc1ccccc1-2
inactive: dose: 75.0 mg/kg/injection, schedule: Q01DX001 (ip), vehicle: carboxymethylcellulose (CMC) 96 % of control | dose: 150.0 mg/kg/injection, schedule: Q01DX001 (ip), vehicle: carboxymethylcellulose (CMC) 95 % of control | dose: 300.0 mg/kg/injection, schedule: Q01DX001 (ip), vehicle: carboxymethylcellulose (CMC) 102 % of control

COC1=NS(=O)(=O)C(C)C(C)(C)O1 (centres undefined)
inactive: [4] 100 % of control | dose: 200.0 mg/kg/injection, schedule: Q04DX002 (ip), vehicle: Klucel (hydroxypropylcellulose) (HPC) 120 % of control | dose: 400.0 mg/kg/injection, schedule: Q04DX002 (ip), vehicle: Klucel (hydroxypropylcellulose) (HPC) 100 % of control

CC(C)(CC(=O)O)CC(=O)OCC(=O)[C@@]1(O)CC[C@H]2[C@@H]3CCC4=CC(=O)C=C[C@]4(C)[C@H]3[C@@H](O)C[C@@]21C
inactive: dose: 20.0 mg/kg/injection, schedule: Q01DX009 (ip), vehicle: steriod suspending solution 103 % of control | dose: 40.0 mg/kg/injection, schedule: Q01DX009 (ip), vehicle: steriod suspending solution 103 % of control | dose: 50.0 mg/kg/injection, schedule: Q01DX001 (sc), vehicle: steriod suspending solution 102 % of control | dose: 80.0 mg/kg/injection, schedule: Q01DX009 (ip), vehicle: steriod suspending solution 111 % of control | dose: 100.0 mg/kg/injection, schedule: Q01DX001 (sc), vehicle: steriod suspending solution 100 % of control | dose: 100.0 mg/kg/injection, schedule: Q01DX009 (sc), vehicle: steriod suspending solution 93 % of control | dose: 100.0 mg/kg/injection, schedule: Q04DX003 (sc), vehicle: steriod suspending solution 98 % of control | dose: 200.0 mg/kg/injection, schedule: Q01DX001 (sc), vehicle: steriod suspending solution 113 % of control | dose: 200.0 mg/kg/injection, schedule: Q01DX009 (sc), vehicle: steriod suspending solution 104 % of control and 118 % of control | dose: 200.0 mg/kg/injection, schedule: Q04DX003 (sc), vehicle: steriod suspending solution 110 % of control | dose: 400.0 mg/kg/injection, schedule: Q01DX001 (sc), vehicle: steriod suspending solution 107 % of control | dose: 400.0 mg/kg/injection, schedule: Q01DX009 (sc), vehicle: steriod suspending solution 102 % of control and 124 % of control | dose: 400.0 mg/kg/injection, schedule: Q04DX003 (sc), vehicle: steriod suspending solution 104 % of control

CCOC(=O)C1=C(C)NC(=O)NC1c1ccc(N(CCCl)CCCl)cc1 (centres undefined)
inactive: [14] 93 % of control | [8] 97 % of control | [15] 112 % of control | [9] 90 % of control | [16] 104 % of control | [10] 101 % of control

CCCCCCCCCCCCCCCCOc1ccc(S(=O)(=O)Nc2cc(C(=O)OC)cc(C(=O)OC)c2)cc1N
inactive: [17] 97 % of control | [18] 90 % of control | [19] 90 % of control

CCCCOCN1C(=O)NC(c2ccccc2)(c2ccccc2)C1=O
inactive: dose: 50.0 mg/kg/injection, schedule: Q01DX009 (ip), vehicle: saline with Tween-80 108 % of control | [13] 94 % of control

O=C1C(Br)=C(Br)C(=O)c2ccccc21
inactive: [11] 106 % of control | [12] 110 % of control

Cc1nccnc1Sc1ccc(Br)cc1
inactive: [20] 106 % of control | [14] 113 % of control | [15] 106 % of control

CC(=O)Oc1ccccc1OC(=S)N(C)C
inactive: [17] 106 % of control | [18] 111 % of control | [19] 105 % of control

C=CCOCC(O)CN(C)CCCC (centres undefined)
inactive: dose: 25.0 mg/kg/injection, schedule: Q04DX003 (ip), vehicle: saline 101 % of control | [20] 100 % of control | dose: 50.0 mg/kg/injection, schedule: Q04DX003 (ip), vehicle: saline 97 % of control | [14] 94 % of control | [2] 103 % of control and 91 % of control

C1=CCC2OC2C1 (centres undefined)
inactive: dose: 100.0 mg/kg/injection, schedule: Q01DX001 (ip), vehicle: acetone 103 % of control | [14] 105 % of control | dose: 200.0 mg/kg/injection, schedule: Q01DX001 (ip), vehicle: acetone 95 % of control | [15] 103 % of control | dose: 400.0 mg/kg/injection, schedule: Q01DX001 (ip), vehicle: acetone 94 % of control

CC1(C)N=C(N)N=C(N)N1c1ccc(CN)cc1
inactive: [2] 109 % of control | [3] 101 % of control

CCCNC(=O)Nc1ccc(Nc2ccccc2)cc1
inactive: [14] 105 % of control | [15] 103 % of control | [16] 94 % of control

CC(=O)NC(C)C1(O)CCCCC1 (centres undefined)
inactive: [1] 101 % of control | dose: 200.0 mg/kg/injection, schedule: Q01DX009 (ip), vehicle: saline 96 % of control | dose: 400.0 mg/kg/injection, schedule: Q01DX009 (ip), vehicle: saline 98 % of control
